From paper PMC8137473, “Preclinical trial of a MAP4K4 inhibitor to reduce infarct size in the pig: does cardioprotection in human stem cell-derived myocytes predict success in large mammals?” (Basic Research in Cardiology, 2021)

Tests used:
MAP4K4 = MAP4K4 (Homo sapiens, UniProt O95819); experiment: cell-free biochemical assay, MAP4K4 inhibition
From the text: DMX-10001, a rapidly hydrolyzed phosphate pro-drug of DMX-5804, was produced by Domainex Ltd, by a modification of the latter’s synthetic route, attaching a hydrolysable phosphate group via a linker to the core of DMX-5804 (Fig. 1a). This removes a key hydrogen bonding group and prevents DMX-10001 from binding to the hinge region of the MAP4K4 kinase domain. […] Furthermore, this modest value is likely driven by minute levels of DMX-5804 either present in the sample or generated during by hydrolysis during the assay.

porcine model of MI = experiment: efficacy study: hemodynamics and LV function; assay type: in vivo, swine; conditions: for 2-D ejection fraction / LV end-diastolic lumen surface / LV end-diastolic wall thickness (infarct region) / LV end-systolic lumen surface / LV end-systolic wall thickness (infarct region) / Systolic Wall thickening (infarct region): echocardiography; for DAP / HR / MAP / SAP: fluid-filled catheter
Experimental: Next, an efficacy study was performed, in adherence to published guidelines for rigor and reproducibility, to evaluate the postulated benefit of DMX-10001 in a large-mammal model of MI. Briefly, 36 closed-chest swine (41 ± 2 kg) were subjected to regional ischemia by occluding the left anterior descending coronary artery (LAD) distal to the first diagonal branch for 60 min, followed by 24 h of reperfusion. Treatment with DMX-10001 (60 mg/kg/h for 0.5 h, followed by 17 mg/kg/h for 23.5 h) versus the vehicle was initiated 20 min prior to reperfusion and continued for 1 day. After 2 h of reperfusion, animals were allowed to recover from anesthesia. At 24 h of reperfusion, the infarct area (IA), area of no-reflow (NR), and area at ischemic risk (AAR) were determined. Transthoracic short-axis B-mode echocardiograms and measurements of LV pressure and its first derivative (LVdP/dt) were obtained at baseline and at 24 h of reperfusion. LV pressure–volume measurements were obtained at 24 h of reperfusion. Heart-type fatty acid binding protein (hFABP) release was measured, as a biomarker that correlates with IS and NR in swine at least as well as cardiac troponin I [30].
A transthoracic short-axis B-mode echocardiogram (ZS3, Zonare Medical Systems, Mountain View, CA) was performed to determine LV contractile performance. LV pressure and its first derivative (LVdP/dt) were determined using a micro-manometer-tipped catheter (SPR-350S, Millar Inc., Houston, TX), before infarct induction and again before killing. Terminal LV pressure–volume measurements were also performed, using a 7F conductance catheter (CD Leycom, Hengelo, The Netherlands) advanced into the LV [32]. After calibration of the system, pressure–volume loops were recorded during a breath hold.
Hemodynamic and LV global function were recorded and digitized online using a three-channel data acquisition program (ATCODAS, Dataq Instruments Inc., Akron OH) and stored on a computer for off-line analysis with a program written in MATLAB (Mathworks Inc., Natick, MA). A minimum of 10 s was selected for analysis of the digitized hemodynamic signals. Pressure–volume-related data were recorded and stored on a computer for off-line analysis (CD Leycom, Hengelo, The Netherlands). Statistical significance (P < 0.05, two tailed) for changes was determined by two-way ANOVA (time point in protocol x treatment) for repeated measures, followed by post hoc testing with the Bonferonni multiple comparison test.

[1] = Millar catheter, Day 1 Baseline
[2] = Millar catheter, Day 2 End of Reperfusion
[3] = conductance catheter, End of Reperfusion
[4] = Coronary artery occlusion 15 min
[5] = Coronary artery occlusion 40 min
[6] = Coronary artery occlusion 60 min

Sequence of MAP4K4 (O95819 whole entry, species assumed, the tested form may be a part): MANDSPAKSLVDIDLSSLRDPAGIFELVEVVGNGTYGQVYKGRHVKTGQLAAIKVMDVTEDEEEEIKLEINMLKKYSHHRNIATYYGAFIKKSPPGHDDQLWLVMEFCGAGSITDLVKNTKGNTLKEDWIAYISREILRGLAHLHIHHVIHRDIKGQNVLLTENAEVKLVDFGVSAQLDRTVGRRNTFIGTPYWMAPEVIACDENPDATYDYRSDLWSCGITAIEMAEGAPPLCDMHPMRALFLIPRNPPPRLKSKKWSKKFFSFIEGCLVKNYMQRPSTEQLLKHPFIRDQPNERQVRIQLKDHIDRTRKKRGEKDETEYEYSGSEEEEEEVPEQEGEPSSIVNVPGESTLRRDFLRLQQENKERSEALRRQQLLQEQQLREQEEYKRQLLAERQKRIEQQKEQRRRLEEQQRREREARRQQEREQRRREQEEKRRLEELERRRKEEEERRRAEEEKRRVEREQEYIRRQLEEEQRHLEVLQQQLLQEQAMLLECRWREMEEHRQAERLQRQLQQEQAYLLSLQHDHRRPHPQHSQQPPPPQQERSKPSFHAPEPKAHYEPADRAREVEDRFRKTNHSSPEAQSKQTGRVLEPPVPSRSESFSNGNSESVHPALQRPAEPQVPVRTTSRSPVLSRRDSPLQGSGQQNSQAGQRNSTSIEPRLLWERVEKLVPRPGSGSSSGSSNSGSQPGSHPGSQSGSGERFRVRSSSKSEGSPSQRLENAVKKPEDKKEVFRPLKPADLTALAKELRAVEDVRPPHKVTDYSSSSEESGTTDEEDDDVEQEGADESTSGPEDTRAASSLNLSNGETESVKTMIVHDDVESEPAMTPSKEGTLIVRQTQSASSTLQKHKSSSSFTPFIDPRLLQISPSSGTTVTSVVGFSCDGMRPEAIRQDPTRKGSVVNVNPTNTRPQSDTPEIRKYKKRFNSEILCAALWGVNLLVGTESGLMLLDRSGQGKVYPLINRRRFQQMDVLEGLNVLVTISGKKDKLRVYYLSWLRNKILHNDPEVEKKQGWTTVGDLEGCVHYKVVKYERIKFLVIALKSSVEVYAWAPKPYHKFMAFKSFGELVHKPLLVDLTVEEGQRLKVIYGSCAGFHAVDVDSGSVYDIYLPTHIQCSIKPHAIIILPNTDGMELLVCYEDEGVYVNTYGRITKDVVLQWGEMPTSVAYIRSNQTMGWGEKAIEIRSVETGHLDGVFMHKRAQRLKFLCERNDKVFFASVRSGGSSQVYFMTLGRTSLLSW

COCCOc1ccc(-c2cn(-c3ccccc3)c3ncn(COP(=O)(O)O)c(=O)c23)cc1 [DMX-10001] was tested, and the “difference in IC50 against MAP4K4, DMX-10001 vs DMX-5804” value (MAP4K4) was > 750 fold, the IC50 (MAP4K4; cell-free biochemical assays, read-out: IC50 against MAP4K4) was 2300 nM and the “LV dP/dtmax” value (porcine model of MI; [1]) was 1830 mmHg/s. For the same compound, the “LV dP/dtmin” value (porcine model of MI; [1]) was -2080 mmHg/s, the “LV dPdtP40” value (porcine model of MI; [1]) was 1640 mmHg/s and the LV end-diastolic pressure (porcine model of MI; [1]) was 8 mmHg. For the same compound, the “LV peak systolic pressure” value (porcine model of MI; [1]) was 102 mmHg, the tau (porcine model of MI; [1]) was 34 ms and the “LV dP/dtmax” value (porcine model of MI; [2]) was 920 mmHg/s. For the same compound, the “LV dP/dtmin” value (porcine model of MI; [2]) was -1240 mmHg/s, the “LV dPdtP40” value (porcine model of MI; [2]) was 800 mmHg/s and the LV end-diastolic pressure (porcine model of MI; [2]) was 13 mmHg. For the same compound, the “LV peak systolic pressure” value (porcine model of MI; [2]) was 78 mmHg, the tau (porcine model of MI; [2]) was 44 ms and the 3-D ejection fraction (porcine model of MI; [3]) was 34%. It also gave a Cardiac output (porcine model of MI; [3]) of 4.7 L/min, a Heart rate (porcine model of MI; [3]) of 109 beats/min and an LV end-diastolic pressure (porcine model of MI; [3]) of 10 mmHg. It also gave an LV end-diastolic volume (porcine model of MI; [3]) of 138 mL, an LV end-systolic volume (porcine model of MI; [3]) of 96 mL and an LV peak-systolic pressure (porcine model of MI; [3]) of 73 mmHg. The Stroke volume (porcine model of MI; [3]) was 45 mL/beat, the tau (porcine model of MI; [3]) was 28 ms and the 2-D ejection fraction (porcine model of MI; Day 1 Baseline) was 44%. For the same compound, the “LV end-diastolic lumen surface” value (porcine model of MI; Day 1 Baseline) was 1843 mm^2, the “LV end-diastolic wall thickness (infarct region)” value (porcine model of MI; Day 1 Baseline) was 7.4 mm and the “LV end-systolic lumen surface” value (porcine model of MI; Day 1 Baseline) was 1034 mm^2. The “LV end-systolic wall thickness (infarct region)” value (porcine model of MI; Day 1 Baseline) was 10.7 mm, the “Systolic Wall thickening (infarct region)” value (porcine model of MI; Day 1 Baseline) was 49% and the 2-D ejection fraction (porcine model of MI; Day 2 End of Reperfusion) was 25%. The “LV end-diastolic lumen surface” value (porcine model of MI; Day 2 End of Reperfusion) was 1916 mm^2, the “LV end-diastolic wall thickness (infarct region)” value (porcine model of MI; Day 2 End of Reperfusion) was 8.5 mm and the “LV end-systolic lumen surface” value (porcine model of MI; Day 2 End of Reperfusion) was 1435 mm^2. For the same compound, the “LV end-systolic wall thickness (infarct region)” value (porcine model of MI; Day 2 End of Reperfusion) was 8.7 mm, the “Systolic Wall thickening (infarct region)” value (porcine model of MI; Day 2 End of Reperfusion) was 3% and the “effect on hemodynamic and LV functional end-points after ischemia–reperfusion” value (porcine model of MI; efficacy study) was “neither worsened nor enhanced”. The DAP (porcine model of MI; Baseline) was 75 ± 15 mmHg, the HR (porcine model of MI; Baseline) was 124 ± 33 bpm and the MAP (porcine model of MI; Baseline) was 89 ± 16 mmHg. The SAP (porcine model of MI; Baseline) was 107 ± 14 mmHg, the DAP (porcine model of MI; [4]) was 76 ± 28 mmHg and the HR (porcine model of MI; [4]) was 89 ± 40 bpm. The MAP (porcine model of MI; [4]) was 91 ± 30 mmHg, the SAP (porcine model of MI; [4]) was 110 ± 34 mmHg and the DAP (porcine model of MI; [5]) was 58 ± 16 mmHg. The HR (porcine model of MI; [5]) was 78 ± 31 bpm, the MAP (porcine model of MI; [5]) was 71 ± 17 mmHg and the SAP (porcine model of MI; [5]) was 88 ± 18 mmHg. It also gave a DAP (porcine model of MI; [6]) of 52 ± 10 mmHg, an HR (porcine model of MI; [6]) of 71 ± 21 bpm and an MAP (porcine model of MI; [6]) of 65 ± 11 mmHg. For the same compound, the SAP (porcine model of MI; [6]) was 82 ± 13 mmHg, the DAP (porcine model of MI; Reperfusion (day 1) 10 min) was 61 ± 13 mmHg and the HR (porcine model of MI; Reperfusion (day 1) 10 min) was 99 ± 22 bpm. It also gave an MAP (porcine model of MI; Reperfusion (day 1) 10 min) of 74 ± 13 mmHg, an SAP (porcine model of MI; Reperfusion (day 1) 10 min) of 91 ± 13 mmHg and a DAP (porcine model of MI; Reperfusion (day 1) 30 min) of 63 ± 11 mmHg. The HR (porcine model of MI; Reperfusion (day 1) 30 min) was 120 ± 31 bpm, the MAP (porcine model of MI; Reperfusion (day 1) 30 min) was 73 ± 11 mmHg and the SAP (porcine model of MI; Reperfusion (day 1) 30 min) was 88 ± 11 mmHg. The DAP (porcine model of MI; Reperfusion (day 1) 120 min) was 62 ± 9 mmHg, the HR (porcine model of MI; Reperfusion (day 1) 120 min) was 94 ± 26 bpm and the MAP (porcine model of MI; Reperfusion (day 1) 120 min) was 73 ± 9 mmHg. For the same compound, the SAP (porcine model of MI; Reperfusion (day 1) 120 min) was 87 ± 10 mmHg, the DAP (porcine model of MI; Reperfusion (day 2) 22h 40 min) was 56 ± 13 mmHg and the HR (porcine model of MI; Reperfusion (day 2) 22h 40 min) was 112 ± 24 bpm. For the same compound, the MAP (porcine model of MI; Reperfusion (day 2) 22h 40 min) was 67 ± 13 mmHg, the SAP (porcine model of MI; Reperfusion (day 2) 22h 40 min) was 80 ± 13 mmHg and the DAP (porcine model of MI; Reperfusion (day 2) 23h 40 min) was 62 ± 17 mmHg. The HR (porcine model of MI; Reperfusion (day 2) 23h 40 min) was 103 ± 14 bpm, the MAP (porcine model of MI; Reperfusion (day 2) 23h 40 min) was 75 ± 18 mmHg and the SAP (porcine model of MI; Reperfusion (day 2) 23h 40 min) was 91 ± 20 mmHg.
